Where two headings read alike, the source gives them in different places.
Assays:
[1] = system: HSV-2; test: Inhibition of Herpes Simplex Virus (HSV-2) replication in cell culture; assay type: cell-based
Experimental: Inhibition of Herpes Simplex Virus (HSV-2) Replication in Cell Culture
BHK-21/C13 cells (ATCC CCL 10) are incubated for two days in 150 cm^2 T-flasks (1.5 x 10^6 cells/flask) with alpha-MEM medium (Gibco Canada Inc., Burlington, Ontario, Canada) supplemented with 8% (v/v) fetal bovine serum (FBS, Gibco Canada Inc.). The cells are trypsinized and then transferred to fresh media in a 24 well plate to give 2.5 x 10^5 cells in 750 µL of media per well. The cells are incubated at 37° for a period of 6 h to allow them to adhere to the plate. Thereafter, the cells are washed once with 500 µL of alpha-MEM supplemented with 0.5% (v/v) FBS and then incubated with 750 µL of the same media (low serum) for 3 days. After this period of serum starvation, the low serum medium is removed and the cells are incubated in 500 µL of BBMT for 2 to 3 hours. {BBMT medium is described by P. Brazeau et al., Proc. Natl. Acad. Sci. USA, 79, 7909 (1982).} Thereafter, the cells are infected with HSV-2 (multiplicity of infection = 0.02 PFU/cell) in 100 µL of BBMT medium. (Note: The HSV-2 used was strain HG-52, see Y. Langelier and G. Buttin, J. Gen. Virol., 57, 21 (1981); the virus was stored at -80°.) Following 1 h of virus adsorption at 37°, the media is removed and the cells are washed with BBMT (3 X 250 µL). The cells in each well are incubated with or without (control) appropriate concentrations of the test agent dissolved in 200 µL of BBMT medium. After 29 h of incubation at 37°, the infected cells are harvested by first freezing the plate at -80°, followed by thawing. The cells in each well are scraped off the surface of the well with the help of the melting ice fragments. After complete thawing, the cell suspensions are collected and each well is rinsed with 150 µL of BBMT medium. The viral sample (suspension plus washing) is sonicated gently for 4 min at 4°. Cell debris are removed by centrifugation (1000 times gravity for 10 minutes at 4°). The supernatant is collected and stored at -80° until determination of viral titer.
Viral titration was performed by a modification of the colorimetric assay method of M. Langlois et al., Journal of Biological Standardization, 14, 201 (1986).
More specifically, in a similar manner as described above, BHK-21/C13 cells are trypsinized and transferred to fresh media in a 96 well microtiter plate to give 20,000 cells in 100 µL of media per well. The cells in the prepared plate are incubated at 37° for 2 h. During that time, the viral sample is thawed and sonicated gently for 15 seconds, and log dilutions of the sample are prepared (1/5 sequential: 50 µL of the sample plus 200 µL of BBMT medium, sequential dilutions being done with a multichannel pipette.
On completion of the above 2 hour incubation of the BHK-21/C13 cells, the media is replaced with alpha-MEM medium supplemented with 3% (v/v) FBS. The cells are now ready to be infected with the various sample dilutions of virus. Aliquots (50 µL) of the various dilutions are transferred into the appropriate wells of the plate. The resulting infected cells are incubated for 2 days at 37°. Then 50 µL of a 0.15% (v/v) solution of neutral red dye in Hank's Balanced Salt Solution (pH 7.3, Gibco Canada Inc.) is added to each well. The prepared plate is incubated for 45 min at 37°. Medium from each well is then aspirated and the cells are washed once with 200 µL of Hank's Balanced Salt Solution. […]

[2] = biological target: T1, HSV-1 ribonucleotide reductase (Human herpesvirus 1, UniProt P08543); test: Inhibition of Herpes Simplex Virus (HSV-1) ribonucleotide reductase; assay type: biochemical
T1 construct: HSV-1 ribonucleotide reductase (partially purified) was obtained from quiescent BHK-21/C13 cells infected with strain F HSV-1 virus; made in house; host or cells: quiescent BHK-21/C13 cells infected with HSV-1 strain F (virus-encoded enzyme, partially purified)
Source text: Inhibition of Herpes Simplex Virus (HSV-1) Ribonucleotide Reductase
• a) Preparation of Enzyme HSV-1 ribonucleotide reductase (partially purified) was obtained from quiescent BHK-21/C13 cells infected with strain F HSV-1 virus at 10 plaque forming units/cell as described by E.A. Cohen et al., J. Gen. Virol., 66, 733 (1985). • b) Assay and Results for Exemplified Peptides By following the procedure described by P. Gaudreau et al., J. Biol, Chem., 262, 12413 (1987), the assay results listed in the following Table I were obtained. The assay result for each exemplified compound of formula 1 is expressed as the concentration of the compound producing 50% of the maximal inhibition (IC50) of enzyme activity. The number of units of the enzyme preparation used in each assay was constant, based on the specific activity of the enzyme preparation. The results are relative to the activity obtained in control experiments without the test compound and represent the mean of four assays that varied less than 10% with each other.

[3] = Human alphaherpesvirus 2, BHK21 (C13), 29 h, Table II, BHK-21/C13 cells, HSV-2 strain HG-52, 0.02 PFU/cell, 29 h incubation, read-out: EC50
[4] = Human alphaherpesvirus 2, Table IV, cell culture assay of example 11, read-out: EC50
[5] = Table I, partially purified enzyme from BHK-21/C13 cells infected with strain F HSV-1, mean of four assays
[6] = Human alphaherpesvirus 2, BHK21 (C13), 29 h

T1 sequence (P08543 whole entry): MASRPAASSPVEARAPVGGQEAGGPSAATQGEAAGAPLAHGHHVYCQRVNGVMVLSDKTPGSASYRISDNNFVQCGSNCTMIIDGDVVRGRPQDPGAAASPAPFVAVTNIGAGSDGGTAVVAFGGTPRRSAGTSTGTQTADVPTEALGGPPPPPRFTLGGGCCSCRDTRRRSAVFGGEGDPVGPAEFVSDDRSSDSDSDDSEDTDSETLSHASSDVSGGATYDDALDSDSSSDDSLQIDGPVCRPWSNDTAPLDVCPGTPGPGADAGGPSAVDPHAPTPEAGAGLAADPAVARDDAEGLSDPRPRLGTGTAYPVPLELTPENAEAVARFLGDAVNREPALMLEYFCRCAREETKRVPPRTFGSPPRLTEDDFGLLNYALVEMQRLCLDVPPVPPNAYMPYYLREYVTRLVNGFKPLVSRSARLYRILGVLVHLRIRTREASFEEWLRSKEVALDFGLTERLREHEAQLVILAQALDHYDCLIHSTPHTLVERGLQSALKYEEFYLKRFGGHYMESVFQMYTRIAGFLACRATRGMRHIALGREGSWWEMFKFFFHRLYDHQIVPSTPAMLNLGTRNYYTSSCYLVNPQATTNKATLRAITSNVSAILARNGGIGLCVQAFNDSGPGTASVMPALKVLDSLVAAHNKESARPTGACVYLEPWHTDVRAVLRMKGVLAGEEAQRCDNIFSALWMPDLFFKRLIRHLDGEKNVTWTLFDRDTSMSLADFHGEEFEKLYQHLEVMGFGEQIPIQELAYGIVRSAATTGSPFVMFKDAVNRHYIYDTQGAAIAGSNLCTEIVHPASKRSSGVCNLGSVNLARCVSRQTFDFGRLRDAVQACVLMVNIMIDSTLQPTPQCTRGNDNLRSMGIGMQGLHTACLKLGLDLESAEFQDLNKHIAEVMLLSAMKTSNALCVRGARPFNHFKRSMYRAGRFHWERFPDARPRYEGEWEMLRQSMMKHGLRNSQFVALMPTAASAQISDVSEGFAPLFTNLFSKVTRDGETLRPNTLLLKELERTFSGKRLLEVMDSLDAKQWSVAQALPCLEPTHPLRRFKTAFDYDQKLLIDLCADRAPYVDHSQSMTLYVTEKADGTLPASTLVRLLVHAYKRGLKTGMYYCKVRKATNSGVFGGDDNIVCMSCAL

## CCCC1(NC(=O)N[C@H](C(=O)C[C@@H](CC(=O)C(C)(C)C)C(=O)N[C@H](C(=O)NCC(C)(C)C)C2(C(=O)O)CCCC2)C(C)(C)C)CCCC1 [(1-propylcyclopentyl)aminocarbonyl-Tbg-CH2-(R)-CH(CH2C(O)CMe3)C(O)-Asp(cyPn)-NHCH2CMe3]
[1]; [3]
  EC50: 40 µM

## C=CCC(CC=C)NC(=O)NC(C(=O)CC(CC(=O)C(C)(C)C)C(=O)NC(C(=O)NCC(C)(C)C)C1(C(=O)O)CCCC1)C(C)(C)C [(CH2=CHCH2)2-CHNHC(O) / NHCH2CMe3, (CH2=CHCH2)2-CHNHC(O)-Tbg-CH2-(R)-CH(CH2C(O)CMe3)C(O)-Asp(cyPn)-NHCH2CMe3]
[2]; Table IV, assay of example 10
  IC50: 0.37 µM
[1]; [4]
  EC50: 100 µM

## C=CCC(CC=C)NC(=O)NC(C(=O)CC(CC(=O)C(C)(C)C)C(=O)NC(C(=O)NC(C)C(C)(C)C)C1(C(=O)O)CCCC1)C(C)(C)C [(CH2=CHCH2)2-CHNHC(O)-Tbg-CH2-(R)-CH(CH2C(O)CMe3)C(O)-Asp(cyPn)-NH-(R)-CH(Me)CMe3]
[2]; Table IV, assay of example 10
  IC50: 0.32 µM
[1]; [4]
  EC50: 48 µM

## CCC(CC)NC(=O)NC(C(=O)CC(CC(=O)C(C)(C)C)C(=O)NC(C(=O)NC(CC(C)(C)C)C(N)=O)C1(C(=O)O)CCCC1)C(C)(C)C [Et2CHNHC(O)-Tbg-CH2-(R)-CH(CH2C(O)-CMe3)C(O)-Asp(cyPn)-γMeLeu-NH2]
[2]; [5]
  IC50: 0.22 µM

## CCC(CC)NC(=O)NC(C(=O)CC(CC(=O)C(C)(C)C)C(=O)NC(C(=O)NC(CC(C)(C)C)C(=O)O)C1(C(=O)O)CCCC1)C(C)(C)C [Et2CHNHC(O)-Tbg-CH2-(R)-CH(CH2C(O)-CMe3)C(O)-Asp(cyPn)-γMeLeu-OH]
[2]; [5]
  IC50: 0.12 µM

## CCC(CC)NC(=O)NC(C(=O)CC(CC(=O)C(C)(C)C)C(=O)NC(C(=O)NCC(C)(C)C)C(C)C(=O)O)C(C)(C)C [Et2CHNHC(O)-Tbg-CH2-(R)-CH(CH2C(O)-CMe3)C(O)-Asp{(R)-Me}-NHCH2CMe3]
[2]; [5]
  IC50: 0.2 µM

## CCCC(CC)(CCC)NC(=O)N[C@H](C(=O)C[C@@H](CC(=O)C(C)(C)C)C(=O)N[C@H](C(=O)NCC(C)(C)C)C1(C(=O)O)CCCC1)C(C)(C)C [EtPr2CNHC(O) / NHCH2CMe3, EtPr2CNHC(O)-Tbg-CH2-(R)-CH(CH2C(O)CMe3)C(O)-Asp(cyPn)-NHCH2CMe3]
[1]; [4]
  EC50: 16 µM

## CC(C)C(C(=O)NC(C(=O)CC(CC(=O)C(C)(C)C)C(=O)NC(C(=O)NCC(C)(C)C)C1(C(=O)O)CCCC1)C(C)(C)C)N(C)C(=O)CCc1ccccc1 [PhCH2CH2C(O)-(N-Me)Val-Tbg-CH2-(R)-CH(CH2C(O)CMe3)C(O)-Asp(cyPn)-NHCH2CMe3]
[2]; [5]
  IC50: 0.33 µM

## CC(C)[C@@H](C(=O)N[C@H](C(=O)C[C@@H](CC(=O)C(C)(C)C)C(=O)N[C@H](C(=O)N[C@@H](CC(C)(C)C)C(N)=O)C1(C(=O)O)CCCC1)C(C)(C)C)N(C)C(=O)CCc1ccccc1 [PhCH2CH2C(O)-(N-Me)Val-Tbg-CH2-(R)-CH(CH2C(O)CMe3)C(O)-Asp(cyPn)-γMeLeu-NH2]
[1]; [6]
  EC50: 60 µM

## CC(C)[C@@H](C(=O)N[C@H](C(=O)C[C@@H](CC(=O)C(C)(C)C)C(=O)N[C@H](C(=O)N[C@@H](CC(C)(C)C)C(=O)O)C1(C(=O)O)CCCC1)C(C)(C)C)N(C)C(=O)CCc1ccccc1 [PhCH2CH2C(O)-(N-Me)Val-Tbg-CH2-(R)-CH(CH2C(O)CMe3)C(O)-Asp(cyPn)-γMeLeu-OH]
[1]; [6]
  EC50: 65 µM

## CC(C)C(C(=O)NC(C(=O)CC(CC(=O)C(C)(C)C)C(=O)NC(C(=O)NCC(C)(C)C)C(C)C(=O)O)C(C)(C)C)N(C)C(=O)CCc1ccccc1 [PhCH2CH2C(O)-(N-Me)Val-Tbg-CH2-(R)-CH(CH2C(O)CMe3)C(O)-Asp{(R)-Me}-NHCH2CMe3]
[2]; [5]
  IC50: 0.33 µM

## CC(C)C(C(=O)NC(C(=O)CC(CC(=O)C1CCCC1)C(=O)NC(C(=O)NCC(C)(C)C)C1(C(=O)O)CCCC1)C(C)(C)C)N(C)C(=O)CCc1ccccc1 [PhCH2CH2C(O)-(N-Me)Val-Tbg-CH2-(R)-CH{CH2C(O)-(cyclopentyl)}C(O)-Asp-(cyPn)-NHCH2CMe3]
[2]; [5]
  IC50: 0.32 µM

## CCCC(CCC)NC(=O)NC(C(=O)CC(CC(=O)C(C)(C)C)C(=O)NC(C(=O)NC1CCCCC1C)C1(C(=O)O)CCCC1)C(C)(C)C [Pr2CHNHC(O) / trans-NH-(2-methyl-cyclohexyl)] [Pr2CHNHC(O)-Tbg-CH2-(R)-CH(CH2C(O)CMe3)C(O)-Asp(cyPn)-trans-NH-(2-methyl-cyclohexyl)]
[1]; Table IV, cell culture assay of example 11, read-out: EC50
  EC50: 60 µM

## CCCC(CCC)NC(=O)NC(C(=O)CC(CC(=O)C(C)(C)C)C(=O)NC(C(=O)NC(CC(C)(C)C)C(=O)O)C1(C(=O)O)CCCC1)C(C)(C)C [Pr2CHNHC(O)-Tbg-CH2-(R)-CH(CH2C(O)-CMe3)C(O)-Asp(cyPn)-γMeLeu-OH]
[2]; [5]
  IC50: 0.15 µM

## CCCC(CCC)NC(=O)NC(C(=O)CC(CC(=O)C(C)(C)C)C(=O)NC(C(=O)NC1CCCCC1C)C1(C(=O)O)CCCC1)C(C)(C)C [Pr2CHNHC(O)-Tbg-CH2-(R)-CH(CH2C(O)CMe3)C(O)-Asp(cyPn)-trans-NH-(2-methyl-cyclohexyl)]
[2]; Table IV, assay of example 10
  IC50: 0.69 µM

## CCCC(CCC)NC(=O)N[C@H](C(=O)C[C@@H](CC(=O)C1CCCC1)C(=O)N[C@H](C(=O)NCC(C)(C)C)C1(C(=O)O)CCCC1)C(C)(C)C [Pr2CHNHC(O)-Tbg-CH2-(R)-CH{CH2C(O)(cyclopentyl)}C(O)-Asp(cyPn)-NHCH2CMe3]
[1]; [3]
  EC50: 30 µM

## CC(C)[C@@H](C(=O)N[C@H](C(=O)C[C@@H](CC(=O)C(C)(C)C)C(=O)N[C@H](C(=O)N[C@H](CO)CC(C)(C)C)C1(C(=O)O)CCCC1)C(C)(C)C)N(C)C(=O)CCc1ccccc1 [Title Compound of Example 6, PhCH2CH2C(O)-(N-Me)Val-Tbg-CH2(R)-CH(CH2C(O)CMe3)C(O)-Asp(cyPn)-γMeLeucinol]
[1]; Human alphaherpesvirus 2, BHK21 (C13)
  EC50: 19 µM
[1]; [6]
  EC50: 15 µM

## CCC(CC)NC(=O)NC(C(=O)CC(CC(=O)C(C)(C)C)C(=O)NC(C(=O)NC(CO)CC(C)(C)C)C1(C(=O)O)CCCC1)C(C)(C)C [Title Compound of Example 7, Et2CHNHC(O)-Tbg-CH2-(R)-CH(CH2C(O)CMe3)CO-Asp(cyPn)-γMeLeucinol]
[2]; [5]
  IC50: 0.15 µM

## Nc1nc2c(ncn2COCCO)c(=O)[nH]1 [acyclovir, reference compound]
[1]; Human alphaherpesvirus 2, BHK21 (C13), Table III, agent alone, BHK-21/C13 cells, HSV-2 strain HG-52, read-out: EC50
  EC50: 3.5 µM
[1]; combination of acyclovir with the title peptide of example 6, EC50's lower than acyclovir alone, isobole method, Figure 1
  action of the combination of acyclovir and the peptide of formula 1: synergistic action

## Pr2CHNHC(O)-Tbg-CH2-(R)-CH-(CH2C(O)CH2CMe3)C(O)-Asp(cyPn)-Leu-OH
[1]; Table V, cell culture assay of example 11, read-out: EC50
  EC50: 80 µM
